# Experimental data as given in US20170258871A1, “COMBINED USE OF A TRKA INHIBITOR AND AN EPHA2 INHIBITOR FOR USING IN THE TREATMENT OF SOLID CANCERS, AND METHOD FOR THE PROGNOSIS OF SURVIVAL OF A PATIENT WHO HAS A SOLID CANCER” (UNIVERSITE DES SCIENCES ET TECHNOLOGIES DE LILLE, priority 2014, published 2017).
# How the values were obtained:
# CAL27 cells = assay: In vitro invasion test (Boyden chamber), CAL 27; type: cell-based; conditions: NGF 16 nM or proNGF N.C. 0.5 nM, untreated cells = 100%
# Experimental: (§1) (0.5 nM) for a period of 20 hours. The untreated cells represent the control and determine a base invasion of 100%.
# (§2) The Boyden Chambers (Transwell®; BD Biosciences; France) were recovered from a biological matrix (type 1 collagen from rats diluted to 400 μg·mL-1 in EMEM-0.1% FCS medium; Millipore). The cells were then seeded with 100,000 cells/well on PET membranes (polyethylene terephtalate; dia.: 10.5 mm; porosity: 8 μm) of Boyden Chambers and held in an EMEM-0.1% FCS medium. […] (0.5 nM) in the lower part. After 20 hours of culture, they were washed twice with PBS 1× and fixed (ice cold methanol; 15 min; −20° C.). The non-invasive cells (upper face of the Transwell®) were eliminated by scraping. The number of cells was estimated after staining with Hoechst 33 258 (1 mM; 30 min; 20° C.) by counting the nuclei thereof using fluorescence microscopy on a total of 5 five randomly chosen fields (lens 10×; λ-excitation: 345 nm; λ-emission: 478 nm; Eclipse Ti) using the ImageJ software. Each experiment was performed in triplicate. Statistical analysis of the results was performed by analysis of variance ANOVA (Bonferroni post-hoc test).
# FaDu cells = assay: In vitro invasion test (Boyden chamber), FaDu; type: cell-based; conditions: NGF 16 nM or proNGF N.C. 0.5 nM, untreated cells = 100%
# Experimental: as §1, §2
substance,measurement,setting,value
NGF: Nerve Growth Factor; recombinant human β NGF supplied by Scil Proteins,cell invasion under growth factor,CAL27 cells,did not respond
same,cell invasion under growth factor,FaDu cells,did not respond
